From patent publication US11613546B2, “Substituted pyridotriazine compounds and uses thereof” (Gilead Sciences, Inc., priority 2021, dated 2023)
Where two headings read alike, the source gives them in different places.

Legend:
Format in all cases: cell-based
[1] = system: pLai RLuc reporter virus; experiment: HIV MT-4 serum shift antiviral reporter assay; details: Human immunodeficiency virus 1, 72 h
Description: To quantify the amount of protein binding to human serum, compounds were serially diluted (1:3) in DMSO and acoustically transferred onto 384-well assay plates via a Labcyte ECHO robot. Each plate contained up to 8 test compounds, including negative and positive controls, (DMSO, 5 μM AZT respectively). Assay plates were prepared in duplicate, and tested in either CCM (cell culture media) or HS/CCM (human serum/cell culture media). MT-4 cells were first pre-infected with pLai RLuc reporter virus for 2 h at 37° C., then further diluted in either CCM (RPMI media, 10% FBS, 1% P/S) or HS/CCM (RPMI media, 10% FBS, 50% HS, 1% P/S), and subsequently added to each plate using a Biotek Micro Flow dispenser. After a 72-h incubation in a humidified and temperature controlled incubator (37° C.), Renilla Glo (Promega) was added to all assay plates and chemiluminescence read using an Envision plate-reader. EC50 values were defined as the compound concentration that causes a 50% decrease in luminescence signal, and were calculated using a sigmoidal dose-response model to generate curve fits. To determine the amount of protein binding, EC50 fold shifts (or EC50 shifts) were calculated by dividing EC50 (HS/CCM)/EC50 (CCM).

[2] = system: HIV-1 (IIIB); experiment: Antiviral assay in MT-4 cells; details: Human immunodeficiency virus 1, IIIB, MT4, 120 h, HIV-1 IIIB infected MT-4 cells, 5 days, Cell Titer Glo; read-out: MT4 EC50
Description: Antiviral Assay in MT-4 Cells
(§1) Compounds were tested in a high-throughput 384-well assay format for their ability to inhibit the replication of HIV-1 (IIIB) in MT-4 cells. Compounds were serially diluted (1:3) in DMSO on 384-well polypropylene plates and further diluted 200-fold into complete RPMI media (10% FBS, 1% P/S) using the Biotek Micro Flow and Labcyte ECHO acoustic dispenser. Each plate contained up to 8 test compounds, with negative (No Drug Control) and 5 μM AZT positive controls. MT-4 cells were pre-infected with 10 μL of either RPMI (mock-infected) or a fresh 1:250 dilution of HIV-1 IIIB concentrated virus stock. Infected and uninfected MT-4 cells were further diluted in complete RPMI media and added to each plate using a Micro Flow dispenser. After 5 days incubation in a humidified and temperature controlled incubator (37° C.), Cell Titer Glo (Promega) was added to the assay plates and chemiluminescence read using an Envision plate-reader. EC50 values were defined as the compound concentration that causes a 50% decrease in luminescence signal, and were calculated using a sigmoidal dose-response model to generate curve fits.

[3] = Cytotoxicity assay in MT-4 cells; details: human
Description: as §1, with “fits. Cytotoxicity Assay in MT-4 Cells Assays were performed as above except uninfected MT-4 cells were added to each well containing test compound. In addition, 10 μM puromycin was added to the last column of each assay plate to assess a base level of cytotoxicity.” for “fits.”

[4] = system: MT-4 cells; experiment: Cytotoxicity assay in MT-4 cells; details: uninfected MT-4 cells, 5 days, Cell Titer Glo; read-out: CC50
Description: as §1, with “fits. Cytotoxicity Assay in MT-4 Cells Assays were performed as above except uninfected MT-4 cells were added to each well containing test compound. In addition, 10 μM puromycin was added to the last column of each assay plate to assess a base level of cytotoxicity.” for “fits.”

[5] = read-out: RLUC 50% HS (nM), HS/CCM: 50% human serum, 72 h, Renilla Glo
[6] = read-out: RLUC CCM (nM), cell culture media (RPMI, 10% FBS), 72 h, Renilla Glo
[7] = uninfected MT-4 cells, 5 days, Cell Titer Glo, read-out: CC50

C[C@H]1CCC2(CCOC2)N2CN1C(=O)c1c(O)c(=O)c(C(=O)NCc3c(F)cc(F)cc3F)cn12 (stereo partly drawn) [Example C86, (1′S,5′S)-8′-hydroxy-5′-methyl-7′,9′-dioxo-N-(2,4,6-trifluorobenzyl)-4,4′,5,5′,7′,9′-hexahydro-2H,3′H-spiro[furan-3,2′-[1,6]methanopyrido[1,2-b][1,2,5]triazonine]-10′-carboxamide]
EC50 [1, 5]: 14.1 nM | EC50 [1, 6]: 0.27 nM | EC50 [2]: 0.5 nM | CC50 at 5 days ([3]; CC50 (nM)): 26000 nM

COC[C@@H]1CC[C@H](C)N2CN1n1cc(C(=O)NCc3ccc(F)cc3F)c(=O)c(O)c1C2=O [Example C83, (1S,2S,5S)—N-(2,4-difluorobenzyl)-8-hydroxy-2-(methoxymethyl)-5-methyl-7,9-dioxo-2,3,4,5,7,9-hexahydro-1,6-methanopyrido[1,2-b][1,2,5]triazonine-10-carboxamide]
EC50 [1, 5]: 261 nM | EC50 [1, 6]: 1.97 nM | EC50 [2]: 3.6 nM | CC50 at 5 days [3, 7]: 30500 nM

C[C@@H]1C/C=C\CN2CN1n1cc(C(=O)NCc3c(F)cc(F)cc3F)c(=O)c(O)c1C2=O [Example C16, (1S,2R,Z)-9-hydroxy-2-methyl-8,10-dioxo-N-(2,4,6-trifluorobenzyl)-3,6,8,10-tetrahydro-2H-1,7-methanopyrido[1,2-b][1,2,5]triazecine-11-carboxamide]
EC50 [1, 5]: 19.4 nM | EC50 [1, 6]: 0.32 nM | EC50 [2]: 1.1 nM | CC50 at 5 days [3, 7]: 11400 nM

C[C@@H]1CCCCN2CN1n1cc(C(=O)NCc3ccc(F)cc3F)c(=O)c(O)c1C2=O [Example C13, (1S,2R)—N-(2,4-difluorobenzyl)-9-hydroxy-2-methyl-8,10-dioxo-3,4,5,6,8,10-hexahydro-2H-1,7-methanopyrido[1,2-b][1,2,5]triazecine-11-carboxamide]
EC50 [1, 5]: 4.07 nM | EC50 [1, 6]: 0.25 nM | EC50 [2]: 1.3 nM | CC50 at 5 days [3, 7]: 8870 nM

C[C@@H]1C[C@H](F)[C@H](CF)N2CN1n1cc(C(=O)NCc3c(F)cc(F)cc3F)c(=O)c(O)c1C2=O [Example C99, (1S,2R,4S,5S)-4-fluoro-5-(fluoromethyl)-8-hydroxy-2-methyl-7,9-dioxo-N-(2,4,6-trifluorobenzyl)-2,3,4,5,7,9-hexahydro-1,6-methanopyrido[1,2-b][1,2,5]triazonine-10-carboxamide]
EC50 [1, 5]: 349 nM | EC50 [1, 6]: 0.52 nM | EC50 [2]: 1.7 nM | CC50 at 5 days [3, 7]: 9440 nM

C[C@@H]1CC(F)(F)[C@H](C)N2CN1n1cc(C(=O)NCc3ccc(F)cc3F)c(=O)c(O)c1C2=O [Example C54, (1S,2R,5S)—N-(2,4-difluorobenzyl)-4,4-difluoro-8-hydroxy-2,5-dimethyl-7,9-dioxo-2,3,4,5,7,9-hexahydro-1,6-methanopyrido[1,2-b][1,2,5]triazonine-10-carboxamide]
EC50 [1, 5]: 72.4 nM | EC50 [1, 6]: 0.63 nM | EC50 [2]: 2.3 nM | CC50 at 5 days [3, 7]: 47400 nM

C[C@H]1CCCCN2CN1n1cc(C(=O)NCc3ccc(F)cc3F)c(=O)c(O)c1C2=O [Example C42, (1R,2S)—N-(2,4-difluorobenzyl)-9-hydroxy-2-methyl-8,10-dioxo-3,4,5,6,8,10-hexahydro-2H-1,7-methanopyrido[1,2-b][1,2,5]triazecine-11-carboxamide]
EC50 [1, 5]: 1880 nM | EC50 [1, 6]: 2.47 nM | EC50 [2]: 2.2 nM | CC50 at 5 days [3, 7]: 7030 nM

C[C@@H]1CC[C@H](CF)N2CN1n1cc(C(=O)NCc3ccc(F)cc3F)c(=O)c(O)c1C2=O [Example C98, (1S,2R,5R)—N-(2,4-difluorobenzyl)-5-(fluoromethyl)-8-hydroxy-2-methyl-7,9-dioxo-2,3,4,5,7,9-hexahydro-1,6-methanopyrido[1,2-b][1,2,5]triazonine-10-carboxamide]
EC50 [1, 5]: 462 nM | EC50 [1, 6]: 1.03 nM | EC50 [2]: 2 nM | CC50 at 5 days [3, 7]: 8930 nM

C[C@H]1CC[C@@H](CF)N2CN1n1cc(C(=O)NCc3ccc(F)cc3F)c(=O)c(O)c1C2=O [Example C96, (1R,2S,5S)—N-(2,4-difluorobenzyl)-5-(fluoromethyl)-8-hydroxy-2-methyl-7,9-dioxo-2,3,4,5,7,9-hexahydro-1,6-methanopyrido[1,2-b][1,2,5]triazonine-10-carboxamide]
EC50 [1, 5]: 958 nM | EC50 [1, 6]: 8.27 nM | EC50 [2]: 11.2 nM | CC50 at 5 days [3, 7]: 5370 nM

CO[C@@H]1[C@H](OC)[C@@H](C)N2CN(C(=O)c3c(O)c(=O)c(C(=O)NCc4c(F)cc(F)cc4F)cn32)[C@H]1C [Example C32, (1S,2R,3R,4S,5S)-8-hydroxy-3,4-dimethoxy-2,5-dimethyl-7,9-dioxo-N-(2,4,6-trifluorobenzyl)-2,3,4,5,7,9-hexahydro-1,6-methanopyrido[1,2-b][1,2,5]triazonine-10-carboxamide]
EC50 [1, 5]: 1.04 nM | EC50 [1, 6]: 0.55 nM | EC50 [2]: 2.4 nM | CC50 at 5 days [3, 7]: 28000 nM

C[C@@H]1CCCCN2CN1n1cc(C(=O)NCc3c(F)cc(F)cc3F)c(=O)c(O)c1C2=O [Example C17, (1S,2R)-9-hydroxy-2-methyl-8,10-dioxo-N-(2,4,6-trifluorobenzyl)-3,4,5,6,8,10-hexahydro-2H-1,7-methanopyrido[1,2-b][1,2,5]triazecine-11-carboxamide]
EC50 [1, 5]: 7.12 nM | EC50 [1, 6]: 0.16 nM | EC50 [2]: 0.91 nM | CC50 at 5 days [3, 7]: 11200 nM

C[C@H]1C=C[C@@]2(CCOC2)N2CN1C(=O)c1c(O)c(=O)c(C(=O)NCc3c(F)cc(F)cc3F)cn12 [Example C85, (1′S,3R,5′S)-8′-hydroxy-5′-methyl-7′,9′-dioxo-N-(2,4,6-trifluorobenzyl)-4,5,7′,9′-tetrahydro-2H,5′H-spiro[furan-3,2′-[1,6]methanopyrido[1,2-b][1,2,5]triazonine]-10′-carboxamide]
CC50 [4]: 29000 nM

C[C@@H]1C[C@@H](F)[C@H](C)N2CN1n1cc(C(=O)NCc3ccc(F)cc3F)c(=O)c(O)c1C2=O [Example C53, (1S,2R,4R,5S)—N-(2,4-difluorobenzyl)-4-fluoro-8-hydroxy-2,5-dimethyl-7,9-dioxo-2,3,4,5,7,9-hexahydro-1,6-methanopyrido[1,2-b][1,2,5]triazonine-10-carboxamide]
EC50 [1, 5]: 350 nM | EC50 [1, 6]: 0.55 nM | EC50 [2]: 1.3 nM | CC50 at 5 days [3, 7]: 9010 nM

CO[C@@H]1C[C@@H](C)N2CN(C(=O)c3c(O)c(=O)c(C(=O)NCc4c(F)cc(F)cc4F)cn32)[C@H]1C [Example C33, (1S,2R,4R,5S)-8-hydroxy-4-methoxy-2,5-dimethyl-7,9-dioxo-N-(2,4,6-trifluorobenzyl)-2,3,4,5,7,9-hexahydro-1,6-methanopyrido[1,2-b][1,2,5]triazonine-10-carboxamide]
EC50 [1, 5]: 4.3 nM | EC50 [1, 6]: 1.8 nM | EC50 [2]: 4 nM | CC50 at 5 days [3, 7]: 32900 nM

C[C@@H]1C=C(F)[C@H](C)N2CN1n1cc(C(=O)NCc3c(F)cc(F)cc3F)c(=O)c(O)c1C2=O [Example C55, (1S,2R,5S)-4-fluoro-8-hydroxy-2,5-dimethyl-7,9-dioxo-N-(2,4,6-trifluorobenzyl)-2,5,7,9-tetrahydro-1,6-methanopyrido[1,2-b][1,2,5]triazonine-10-carboxamide]
EC50 [1, 5]: 515 nM | EC50 [1, 6]: 0.71 nM | EC50 [2]: 1.3 nM | CC50 at 5 days [3, 7]: 29500 nM
